Laboratory results from patent publication US6087358A (priority 1997, dated 2000).
≈ marks a conversion by molar mass, not a printed value.

System: Cryptosporidium parvum
Test: Inhibition of Cryptosporidium parvum (ELISA, infected HCT-8 monolayers)
Type: cell-based
Description: Susceptibility testing against Cryptosporidium was performed according to published procedures (K. Woods, M. Nesterenko, S. Upton, "Development of a microtiter ELISA to quantify development of Cryptosporidium parvum in vitro," FEMS Microbiology Letters, 128:89-94 (1995).
Compounds were solubilized to a concentration of 100 mg/mL in 100% DMSO. DMSO solutions of test compounds were added to the test wells of a microplate at a volume that produced a final concentration of DMSO of 0.2%. Monolayers of human ileocecal adenocarcinoma cells (HCT-8) were prepared by growth in RPMI 1640 medium in 96-Well tissue culture trays for 24 h. Oocysts of C. parvum were allowed to excyst in 10% bleach for 10 min prior to use. Monolayers were then infected with 2-3×10^4 oocysts/well and incubated in the presence or absence of compound for 48 h at 35° C. in 5% CO2 and 95% humidity. Background consisted of wells containing killed oocysts (freeze thaw cycle following 30 sec exposure to liquid nitrogen). Growth control wells were infected with 2-3×10^4 oocysts/well in the absence of test compounds. At the end of incubation, wells were washed and fixed by adding 100 uL of 4% formalin in phosphate buffered saline (pH 7.3) per well for 2 h. After blocking with 1% bovine serum albumin, and 0.002% Tween 20, 50 uL of rat anti-Cryptosporidium membrane protein antiserum was added. After 30 min, wells were washed in PBS and 50 uL of secondary antibody (goat anti-rat antibody conjugated with horseradish peroxidase) was added. After 20-30 min, wells were washed again in PBS and 50 uL of 3,3',5,5'-tetramethylbenzidine solution was added. Plates were allowed to develop for 10-15 min and the optical density was read at 630 nm. Percent inhibition was calculated by comparing the optical density of the drug treated group to that of the untreated control.

**Q.** `O=[N+]([O-])c1cn2c(n1)OC[C@@H](OCc1ccc(OC(F)(F)F)cc1)C2` [PA-824, 3S 4-(Trifluromethoxy)benzyloxy-6-nitro-2H-3,4-dihydro-[2-1b]imidazopyran] was tested. Which dose-related response (C. parvum growth) did it give?
**A.** The dose-related response was “A clear dose-related response”.

**Q.** And the IC50 (Cryptosporidium parvum, HCT-8)?
**A.** The IC50 was 25 µg/mL (≈ 69.6 µM).

**Q.** What about the inhibition at 5 µg/mL (Cryptosporidium parvum, HCT-8, 5 μg/mL, 48 h, read-out: Percent Inhibition of C. parvum) of the same compound?
**A.** The inhibition at 5 µg/mL was 3.1%.

**Q.** What about the inhibition at 10 µg/mL (Cryptosporidium parvum, HCT-8, 10 μg/mL, 48 h, read-out: Percent Inhibition of C. parvum) of the same compound?
**A.** Its inhibition at 10 µg/mL is 17%.

**Q.** And the inhibition at 20 µg/mL (Cryptosporidium parvum, HCT-8, 20 μg/mL, 48 h, read-out: Percent Inhibition of C. parvum)?
**A.** The inhibition at 20 µg/mL was 40%.

**Q.** What about the inhibition at 25 µg/mL (Cryptosporidium parvum, HCT-8, 25 μg/mL, 48 h, read-out: Percent Inhibition of C. parvum) of the same compound?
**A.** The inhibition at 25 µg/mL was 52%.

**Q.** What about the inhibition at 50 µg/mL (Cryptosporidium parvum, HCT-8, 50 μg/mL, 48 h, read-out: Percent Inhibition of C. parvum) of the same compound?
**A.** Its inhibition at 50 µg/mL is 93%.

**Q.** And the inhibition at 100 µg/mL (Cryptosporidium parvum, HCT-8, 100 μg/mL, 48 h, read-out: Percent Inhibition of C. parvum)?
**A.** Its inhibition at 100 µg/mL is 87%.
